Laboratory results as given in ChEMBL document CHEMBL3885861, “Open TG-GATES”.

Organism: Rattus norvegicus
Test: Open TG-GATES - Regimen: Single
Type: toxicity, organism-based, Sprague-Dawley
Design: regimen Single, gender Male, age 6 weeks
Conditions: in vivo, po, route gavage; for APTT / Bas / Eos / Fbg / Hb / Ht / MCH / MCHC / MCV / Mono / PT / Plat / RBC / Ret / WBC: tissue Blood; for ALP / ALT / CRE / DBIL / GLC / IP / K / LDH / Na / PL / RALB / TBIL / TC / TG / TP / gamma-GTP: tissue Plasma
[1] = 0 mg/kg, 3 h, dose level Control
[2] = 0 mg/kg, 6 h, dose level Control
[3] = 0 mg/kg, 9 h, dose level Control
[4] = 0 mg/kg, 24 h, dose level Control

## CCN(CC)C(=S)SSC(=S)N(CC)CC
[1]
  TERMINAL_BW: 212.4 g
  APTT: 21.9 s
  Bas: 0%
  Eos: 0.6%
  Fbg: 285.8 mg/dL
  Hb: 13.2 g/dL
  Ht: 40.8%
  MCH: 20.6 pg
  MCHC: 32.3%
  MCV: 63.8 fL
  Mono: 2.6%
  PT: 16.5 s
  Plat: 98.3 x10_4/uL
  RBC: 639.2 x10_4/ul
  Ret: 7.6%
  WBC: 97.5 x10_2/uL
  ALP: 1602.8 IU/L
  ALT: 48 IU/L
  CRE: 0.2 mg/dL
  DBIL: 0 mg/dL
  GLC: 188.6 mg/dL
  IP: 7.8 mg/dL
  K: 4.2 meq/L
  LDH: 236.6 IU/L
  Na: 141.4 meq/L
  PL: 138 mg/dL
  RALB: 3 g/dL
  TBIL: 0.006 mg/dL
  TC: 73.6 mg/dL
  TG: 72.4 mg/dL
  TP: 5.5 g/dL
  gamma-GTP: 1 IU/L
[2]
  TERMINAL_BW: 208.9 g
  APTT: 21.8 s
  Bas: 0%
  Eos: 0.8%
  Fbg: 286.4 mg/dL
  Hb: 12.8 g/dL
  Ht: 39.4%
  MCH: 20.1 pg
  MCHC: 32.4%
  MCV: 62 fL
  Mono: 2%
  PT: 16.6 s
  Plat: 119.2 x10_4/uL
  RBC: 635.6 x10_4/ul
  Ret: 7.1%
  WBC: 102.5 x10_2/uL
  ALP: 1209.4 IU/L
  ALT: 38.8 IU/L
  CRE: 0.1 mg/dL
  DBIL: 0 mg/dL
  GLC: 184 mg/dL
  IP: 9.5 mg/dL
  K: 4.4 meq/L
  LDH: 188 IU/L
  Na: 141 meq/L
  PL: 124.6 mg/dL
  RALB: 3 g/dL
  TBIL: 0.004 mg/dL
  TC: 71.8 mg/dL
  TG: 56.8 mg/dL
  TP: 5.3 g/dL
  gamma-GTP: 1 IU/L
[3]
  TERMINAL_BW: 212.5 g
  APTT: 23.3 s
  Bas: 0%
  Eos: 0.8%
  Fbg: 297.2 mg/dL
  Hb: 12.9 g/dL
  Ht: 39.9%
  MCH: 20.2 pg
  MCHC: 32.3%
  MCV: 62.6 fL
  Mono: 2.6%
  PT: 16.4 s
  Plat: 107.7 x10_4/uL
  RBC: 638.6 x10_4/ul
  Ret: 7.1%
  WBC: 111.4 x10_2/uL
  ALP: 1326.8 IU/L
  ALT: 33.6 IU/L
  CRE: 0.2 mg/dL
  DBIL: 0.002 mg/dL
  GLC: 198.8 mg/dL
  IP: 10 mg/dL
  K: 4.1 meq/L
  LDH: 130 IU/L
  Na: 140.8 meq/L
  PL: 132.4 mg/dL
  RALB: 3.1 g/dL
  TBIL: 0.008 mg/dL
  TC: 72.6 mg/dL
  TG: 82.4 mg/dL
  TP: 5.4 g/dL
  gamma-GTP: 1 IU/L
[4]
  TERMINAL_BW: 229.8 g
  APTT: 20.8 s
  Bas: 0%
  Eos: 1%
  Fbg: 278.6 mg/dL
  Hb: 12.5 g/dL
  Ht: 38.4%
  MCH: 20.4 pg
  MCHC: 32.6%
  MCV: 62.5 fL
  Mono: 2.6%
  PT: 16.4 s
  Plat: 106.2 x10_4/uL
  RBC: 613.8 x10_4/ul
  Ret: 7.5%
  WBC: 83.8 x10_2/uL
  ALP: 1487.8 IU/L
  ALT: 40.4 IU/L
  CRE: 0.1 mg/dL
  DBIL: 0 mg/dL
  GLC: 193.4 mg/dL
  IP: 7.8 mg/dL
  K: 4.2 meq/L
  LDH: 167.6 IU/L
  Na: 141.2 meq/L
  RALB: 3 g/dL
  TBIL: 0.01 mg/dL
  TC: 78.4 mg/dL
  TG: 81.6 mg/dL
  TP: 5.5 g/dL
  gamma-GTP: 1.8 IU/L
60 mg/kg, 3 h, dose level Low
  TERMINAL_BW: 215.7 g
  APTT: 20.7 s
  Bas: 0%
  Eos: 0.6%
  Fbg: 298.2 mg/dL
  Hb: 12.9 g/dL
  Ht: 39.9%
  MCH: 20.2 pg
  MCHC: 32.3%
  MCV: 62.6 fL
  Mono: 3.6%
  PT: 16.3 s
  Plat: 128.9 x10_4/uL
  RBC: 638.2 x10_4/ul
  Ret: 8.8%
  WBC: 84.6 x10_2/uL
  ALP: 1871.6 IU/L
  ALT: 41.6 IU/L
  CRE: 0.1 mg/dL
  DBIL: 0.002 mg/dL
  GLC: 178.2 mg/dL
  IP: 8.8 mg/dL
  K: 4.1 meq/L
  LDH: 188.6 IU/L
  Na: 141.4 meq/L
  PL: 128.6 mg/dL
  RALB: 3.2 g/dL
  TBIL: 0.016 mg/dL
  TC: 71 mg/dL
  TG: 70 mg/dL
  TP: 5.5 g/dL
  gamma-GTP: 1.4 IU/L
60 mg/kg, 6 h, dose level Low
  TERMINAL_BW: 211.5 g
  APTT: 23.2 s
  Bas: 0%
  Eos: 0.8%
  Fbg: 293 mg/dL
  Hb: 13.2 g/dL
  Ht: 40.9%
  MCH: 20.3 pg
  MCHC: 32.4%
  MCV: 62.6 fL
  Mono: 3.4%
  PT: 16.3 s
  Plat: 125.2 x10_4/uL
  RBC: 653.8 x10_4/ul
  Ret: 7.3%
  WBC: 99 x10_2/uL
  ALP: 1256.6 IU/L
  ALT: 36.4 IU/L
  CRE: 0.1 mg/dL
  DBIL: 0 mg/dL
  GLC: 179 mg/dL
  IP: 9.1 mg/dL
  K: 4.3 meq/L
  LDH: 181.8 IU/L
  Na: 141.6 meq/L
  PL: 125.2 mg/dL
  RALB: 3 g/dL
  TBIL: 0.008 mg/dL
  TC: 68.6 mg/dL
  TG: 59.2 mg/dL
  TP: 5.3 g/dL
  gamma-GTP: 1 IU/L
60 mg/kg, 9 h, dose level Low
  TERMINAL_BW: 210.6 g
  APTT: 23 s
  Bas: 0%
  Eos: 0.2%
  Fbg: 307.2 mg/dL
  Hb: 13.1 g/dL
  Ht: 40.1%
  MCH: 20.2 pg
  MCHC: 32.5%
  MCV: 62.3 fL
  Mono: 2.6%
  PT: 15.8 s
  Plat: 121 x10_4/uL
  RBC: 645 x10_4/ul
  Ret: 7.5%
  WBC: 93.7 x10_2/uL
  ALP: 1515 IU/L
  ALT: 32.8 IU/L
  CRE: 0.1 mg/dL
  DBIL: 0.002 mg/dL
  GLC: 188.8 mg/dL
  IP: 9.6 mg/dL
  K: 4.1 meq/L
  LDH: 160.4 IU/L
  Na: 141.2 meq/L
  PL: 149.4 mg/dL
  RALB: 3.1 g/dL
  TBIL: 0.018 mg/dL
  TC: 81.6 mg/dL
  TG: 99 mg/dL
  TP: 5.5 g/dL
  gamma-GTP: 1 IU/L
60 mg/kg, 24 h, dose level Low
  TERMINAL_BW: 213.4 g
  APTT: 21.8 s
  Bas: 0%
  Eos: 0.4%
  Fbg: 274.6 mg/dL
  Hb: 12.6 g/dL
  Ht: 39%
  MCH: 20.3 pg
  MCHC: 32.3%
  MCV: 62.9 fL
  Mono: 2%
  PT: 16.6 s
  Plat: 117.1 x10_4/uL
  RBC: 620.4 x10_4/ul
  Ret: 7%
  WBC: 124.3 x10_2/uL
  ALP: 1307.4 IU/L
  ALT: 33.8 IU/L
  CRE: 0.2 mg/dL
  DBIL: 0 mg/dL
  GLC: 178 mg/dL
  IP: 6.5 mg/dL
  K: 4.3 meq/L
  LDH: 187.8 IU/L
  Na: 141.4 meq/L
  PL: 128.2 mg/dL
  RALB: 2.8 g/dL
  TBIL: 0.006 mg/dL
  TC: 74.6 mg/dL
  TG: 98 mg/dL
  TP: 5.1 g/dL
  gamma-GTP: 1 IU/L
